Results on three molecules are retold here after ChEMBL document CHEMBL1156337, “Synthesis and evaluation of novel benzothiazole derivatives based on the bithiophene structure as potential radiotracers for beta-amyloid plaques in Alzheimer's disease” (Bioorg Med Chem, 2010).

The source made the active and inactive calls. No cut-off for these calls is given here.

Assay [1] is described as follows: Binding affinity to amyloid beta aggregates.
The nature of assay [2]: Displacement of [125I]TZDM from amyloid beta (1 to 40) aggregates after 2 hrs.
The nature of assay [3]: Displacement of [125I]TZDM from amyloid beta (1 to 42) aggregates after 2 hrs.
The species named for assay [4] is Mus musculus. Kind of assay: Binding affinity to beta amyloid plaques in brain sections of TgC57 transgenic mouse transfected with APP and PS1 double mutant after 10 mins using thioflavin-S stain. The class given is tissue-based.
The species entered for assay [5] is Mus musculus. Kind of assay: Binding affinity to beta amyloid plaques in brain sections of TgC57 transgenic mouse transfected with APP and PS1 double mutant after 30 mins by autoradiography in the presence of thioflavin-T. The class given is tissue-based. The conditions noted are these: tested as the 125I-labelled form.
The species named for assay [6] is Mus musculus. The experiment in a line: Binding affinity to beta amyloid plaques in brain sections of TgC57 transgenic mouse transfected with APP and PS1 double mutant after 30 mins by autoradiography. The class given is tissue-based. The conditions noted are these: tested as the 125I-labelled form.

`N#CC(C#N)=Cc1ccc(-c2ccc(-c3ccc(O)cc3)s2)s1`: the Ki in assay [1] is 10 nM.

For `COc1ccc2nc(-c3ccc(-c4cccs4)s3)sc2c1`, the values for the Ki in assay [2] and in assay [3] were 0.6 nM and 2.09 nM, respectively. Also, in the assay filed under Mus musculus [4], the result was Active.

As to `Ic1ccc2nc(-c3ccc(-c4cccs4)s3)sc2c1`, in the assay filed under Mus musculus [5], the result was inactive. Moreover, the Ki was found to be 0.31 nM in assay [2] and 0.25 nM in assay [3]. Also, the outcome in the assay listed under Mus musculus [6] and in the assay filed under Mus musculus [4] was Active.
